In ChEMBL document CHEMBL4507276 (2021):

Columns and labels:
[1] = molecular target: Proto-oncogene tyrosine-protein kinase receptor Ret (Homo sapiens) (UniProt P07949); conditions: Compound concentration 1000.0 nM
[2] = molecular target: Rho-associated protein kinase 2 (Homo sapiens) (UniProt O75116); conditions: Compound concentration 1000.0 nM
[3] = molecular target: T1, Ephrin type-B receptor 1 (Homo sapiens) (UniProt P54762); conditions: Compound concentration 1000.0 nM
T1 sequence (whole entry): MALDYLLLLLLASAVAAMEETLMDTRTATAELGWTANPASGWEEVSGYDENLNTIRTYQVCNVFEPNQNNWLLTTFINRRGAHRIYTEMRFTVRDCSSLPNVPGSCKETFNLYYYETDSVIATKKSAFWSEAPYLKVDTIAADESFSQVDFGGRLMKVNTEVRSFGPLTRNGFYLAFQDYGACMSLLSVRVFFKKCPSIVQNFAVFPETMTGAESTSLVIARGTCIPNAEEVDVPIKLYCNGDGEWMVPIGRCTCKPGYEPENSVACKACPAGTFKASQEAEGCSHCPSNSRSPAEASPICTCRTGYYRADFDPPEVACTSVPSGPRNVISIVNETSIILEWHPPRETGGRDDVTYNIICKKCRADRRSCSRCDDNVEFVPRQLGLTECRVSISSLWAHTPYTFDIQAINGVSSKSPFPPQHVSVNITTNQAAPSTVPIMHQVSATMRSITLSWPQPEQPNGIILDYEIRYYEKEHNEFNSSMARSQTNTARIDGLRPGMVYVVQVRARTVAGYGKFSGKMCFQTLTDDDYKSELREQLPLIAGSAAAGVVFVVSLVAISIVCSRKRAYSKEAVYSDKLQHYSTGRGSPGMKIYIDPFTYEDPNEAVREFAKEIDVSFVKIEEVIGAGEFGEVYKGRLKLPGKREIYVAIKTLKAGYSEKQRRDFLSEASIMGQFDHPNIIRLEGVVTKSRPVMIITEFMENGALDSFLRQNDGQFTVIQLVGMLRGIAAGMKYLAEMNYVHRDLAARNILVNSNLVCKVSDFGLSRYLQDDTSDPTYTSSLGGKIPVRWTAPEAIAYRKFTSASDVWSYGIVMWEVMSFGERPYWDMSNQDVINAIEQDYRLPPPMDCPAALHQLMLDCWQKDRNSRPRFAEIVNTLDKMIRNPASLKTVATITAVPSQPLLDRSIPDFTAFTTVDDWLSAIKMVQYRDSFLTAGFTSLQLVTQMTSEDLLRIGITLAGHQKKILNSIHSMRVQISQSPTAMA

[4] = molecular target: Platelet-derived growth factor receptor alpha (Homo sapiens) (UniProt P16234); conditions: Compound concentration 1000.0 nM
Chain of Platelet-derived growth factor receptor alpha (Homo sapiens) (P16234 whole entry): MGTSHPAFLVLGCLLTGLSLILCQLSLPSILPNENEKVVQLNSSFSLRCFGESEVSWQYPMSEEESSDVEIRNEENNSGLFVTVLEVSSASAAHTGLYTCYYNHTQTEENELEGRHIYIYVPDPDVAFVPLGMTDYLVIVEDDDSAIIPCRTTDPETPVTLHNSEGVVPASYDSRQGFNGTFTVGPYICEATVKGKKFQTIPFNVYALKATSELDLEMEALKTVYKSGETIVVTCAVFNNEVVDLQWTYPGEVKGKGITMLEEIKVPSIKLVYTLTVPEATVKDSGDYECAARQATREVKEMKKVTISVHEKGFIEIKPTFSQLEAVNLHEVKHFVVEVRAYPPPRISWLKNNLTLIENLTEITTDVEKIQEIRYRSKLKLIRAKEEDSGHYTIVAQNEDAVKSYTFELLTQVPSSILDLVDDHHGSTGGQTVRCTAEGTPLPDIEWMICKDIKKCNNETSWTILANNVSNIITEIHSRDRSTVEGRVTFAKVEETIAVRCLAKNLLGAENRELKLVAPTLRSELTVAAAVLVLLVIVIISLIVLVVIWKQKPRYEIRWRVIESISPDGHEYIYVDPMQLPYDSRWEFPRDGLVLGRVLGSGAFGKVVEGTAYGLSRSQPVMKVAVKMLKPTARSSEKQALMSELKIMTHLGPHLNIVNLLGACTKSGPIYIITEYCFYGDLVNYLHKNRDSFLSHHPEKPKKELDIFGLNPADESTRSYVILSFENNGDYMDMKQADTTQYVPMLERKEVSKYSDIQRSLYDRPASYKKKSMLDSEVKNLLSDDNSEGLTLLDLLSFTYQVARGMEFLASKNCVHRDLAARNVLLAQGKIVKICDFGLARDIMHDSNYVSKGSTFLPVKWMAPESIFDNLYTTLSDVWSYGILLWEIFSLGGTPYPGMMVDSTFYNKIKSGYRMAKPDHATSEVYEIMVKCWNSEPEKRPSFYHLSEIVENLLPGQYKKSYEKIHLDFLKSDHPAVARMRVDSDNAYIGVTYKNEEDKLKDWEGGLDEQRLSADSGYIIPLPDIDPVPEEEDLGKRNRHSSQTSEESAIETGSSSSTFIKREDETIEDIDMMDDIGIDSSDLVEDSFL

[5] = molecular target: Interleukin-1 receptor-associated kinase 1 (Homo sapiens) (UniProt P51617); conditions: Compound concentration 1000.0 nM
Chain of Interleukin-1 receptor-associated kinase 1 (Homo sapiens) (P51617 whole entry, looked up): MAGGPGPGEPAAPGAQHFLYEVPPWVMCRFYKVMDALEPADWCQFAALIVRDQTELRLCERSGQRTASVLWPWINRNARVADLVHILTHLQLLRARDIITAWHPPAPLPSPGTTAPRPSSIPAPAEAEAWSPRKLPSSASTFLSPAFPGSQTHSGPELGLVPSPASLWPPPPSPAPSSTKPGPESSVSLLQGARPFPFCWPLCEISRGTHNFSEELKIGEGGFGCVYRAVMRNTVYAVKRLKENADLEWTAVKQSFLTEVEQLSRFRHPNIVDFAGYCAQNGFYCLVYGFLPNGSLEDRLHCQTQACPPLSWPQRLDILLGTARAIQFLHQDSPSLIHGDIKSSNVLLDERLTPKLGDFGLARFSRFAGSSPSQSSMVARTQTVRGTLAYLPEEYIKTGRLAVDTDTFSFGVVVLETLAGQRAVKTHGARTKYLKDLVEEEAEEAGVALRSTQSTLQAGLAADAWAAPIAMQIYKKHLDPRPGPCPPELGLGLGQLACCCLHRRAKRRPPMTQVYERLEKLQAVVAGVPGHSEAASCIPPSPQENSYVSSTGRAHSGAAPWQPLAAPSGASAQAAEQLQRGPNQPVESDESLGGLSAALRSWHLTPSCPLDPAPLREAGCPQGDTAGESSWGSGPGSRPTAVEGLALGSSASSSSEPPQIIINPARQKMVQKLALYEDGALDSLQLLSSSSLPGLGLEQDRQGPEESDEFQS

[6] = molecular target: T2, Muscarinic acetylcholine receptor M4 (Homo sapiens) (UniProt P08173); conditions: Compound concentration 10.0 uM
T2 sequence (whole entry): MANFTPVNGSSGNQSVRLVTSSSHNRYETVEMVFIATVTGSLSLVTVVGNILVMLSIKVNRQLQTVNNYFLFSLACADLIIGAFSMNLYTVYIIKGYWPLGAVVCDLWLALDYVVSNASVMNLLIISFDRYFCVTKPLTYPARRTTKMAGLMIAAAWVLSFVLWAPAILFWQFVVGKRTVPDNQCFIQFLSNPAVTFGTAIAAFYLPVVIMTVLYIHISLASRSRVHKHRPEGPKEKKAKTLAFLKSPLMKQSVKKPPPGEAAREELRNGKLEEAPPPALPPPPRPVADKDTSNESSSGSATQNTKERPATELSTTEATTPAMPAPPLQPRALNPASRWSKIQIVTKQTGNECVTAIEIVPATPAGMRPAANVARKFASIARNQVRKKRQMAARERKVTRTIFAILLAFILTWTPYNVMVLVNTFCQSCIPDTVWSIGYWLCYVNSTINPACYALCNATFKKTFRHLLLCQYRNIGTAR

[7] = molecular target: Non-receptor tyrosine-protein kinase TNK1 (Homo sapiens) (UniProt Q13470); conditions: Compound concentration 1000.0 nM
Chain of Non-receptor tyrosine-protein kinase TNK1 (Homo sapiens) (Q13470 whole entry): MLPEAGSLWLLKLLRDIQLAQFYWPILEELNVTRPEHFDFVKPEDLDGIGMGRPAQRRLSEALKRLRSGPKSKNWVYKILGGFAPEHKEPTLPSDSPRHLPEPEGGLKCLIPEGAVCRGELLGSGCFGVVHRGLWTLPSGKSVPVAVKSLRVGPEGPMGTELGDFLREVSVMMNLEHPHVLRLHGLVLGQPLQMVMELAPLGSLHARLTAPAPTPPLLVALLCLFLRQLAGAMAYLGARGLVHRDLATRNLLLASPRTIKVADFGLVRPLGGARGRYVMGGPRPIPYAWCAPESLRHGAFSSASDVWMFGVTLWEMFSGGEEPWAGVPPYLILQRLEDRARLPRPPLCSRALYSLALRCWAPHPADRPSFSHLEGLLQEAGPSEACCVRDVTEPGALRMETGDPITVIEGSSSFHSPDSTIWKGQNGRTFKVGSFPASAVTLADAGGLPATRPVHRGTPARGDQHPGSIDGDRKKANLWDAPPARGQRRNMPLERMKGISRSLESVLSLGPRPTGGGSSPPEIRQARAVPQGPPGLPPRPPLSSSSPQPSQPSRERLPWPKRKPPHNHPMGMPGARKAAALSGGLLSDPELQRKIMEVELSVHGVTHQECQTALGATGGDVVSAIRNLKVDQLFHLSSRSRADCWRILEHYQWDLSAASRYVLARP

[8] = molecular target: T3, Serine/threonine-protein kinase D2 (Homo sapiens) (UniProt Q9BZL6); conditions: Compound concentration 1000.0 nM
T3 sequence (whole entry): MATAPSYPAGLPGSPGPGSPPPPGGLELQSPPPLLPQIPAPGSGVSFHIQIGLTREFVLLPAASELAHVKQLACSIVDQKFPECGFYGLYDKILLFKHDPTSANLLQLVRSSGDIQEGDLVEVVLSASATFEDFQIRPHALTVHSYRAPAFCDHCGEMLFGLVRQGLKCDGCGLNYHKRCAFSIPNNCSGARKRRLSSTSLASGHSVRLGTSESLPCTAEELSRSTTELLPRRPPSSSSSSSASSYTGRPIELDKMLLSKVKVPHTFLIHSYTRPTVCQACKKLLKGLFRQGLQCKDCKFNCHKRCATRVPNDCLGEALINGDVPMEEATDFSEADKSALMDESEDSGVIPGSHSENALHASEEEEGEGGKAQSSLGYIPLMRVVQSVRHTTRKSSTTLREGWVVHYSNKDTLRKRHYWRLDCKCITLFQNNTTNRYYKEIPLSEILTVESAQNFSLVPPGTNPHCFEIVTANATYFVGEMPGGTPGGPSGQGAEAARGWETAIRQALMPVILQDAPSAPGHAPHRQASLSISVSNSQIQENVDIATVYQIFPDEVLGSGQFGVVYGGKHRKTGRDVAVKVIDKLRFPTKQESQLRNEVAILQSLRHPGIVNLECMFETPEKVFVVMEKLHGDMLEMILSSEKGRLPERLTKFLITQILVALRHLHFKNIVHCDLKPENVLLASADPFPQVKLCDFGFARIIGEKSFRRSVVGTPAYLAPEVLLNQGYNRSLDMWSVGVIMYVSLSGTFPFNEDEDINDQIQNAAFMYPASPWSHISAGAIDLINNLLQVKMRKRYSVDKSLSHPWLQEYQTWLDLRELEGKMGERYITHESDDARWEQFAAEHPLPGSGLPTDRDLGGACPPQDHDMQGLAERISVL

[9] = test system: Tyrosine-protein kinase ABL1 (Homo sapiens), P00519 [Q252H]; conditions: Compound concentration 1000.0 nM

Chain of Rho-associated protein kinase 2 (Homo sapiens) (O75116 whole entry, looked up): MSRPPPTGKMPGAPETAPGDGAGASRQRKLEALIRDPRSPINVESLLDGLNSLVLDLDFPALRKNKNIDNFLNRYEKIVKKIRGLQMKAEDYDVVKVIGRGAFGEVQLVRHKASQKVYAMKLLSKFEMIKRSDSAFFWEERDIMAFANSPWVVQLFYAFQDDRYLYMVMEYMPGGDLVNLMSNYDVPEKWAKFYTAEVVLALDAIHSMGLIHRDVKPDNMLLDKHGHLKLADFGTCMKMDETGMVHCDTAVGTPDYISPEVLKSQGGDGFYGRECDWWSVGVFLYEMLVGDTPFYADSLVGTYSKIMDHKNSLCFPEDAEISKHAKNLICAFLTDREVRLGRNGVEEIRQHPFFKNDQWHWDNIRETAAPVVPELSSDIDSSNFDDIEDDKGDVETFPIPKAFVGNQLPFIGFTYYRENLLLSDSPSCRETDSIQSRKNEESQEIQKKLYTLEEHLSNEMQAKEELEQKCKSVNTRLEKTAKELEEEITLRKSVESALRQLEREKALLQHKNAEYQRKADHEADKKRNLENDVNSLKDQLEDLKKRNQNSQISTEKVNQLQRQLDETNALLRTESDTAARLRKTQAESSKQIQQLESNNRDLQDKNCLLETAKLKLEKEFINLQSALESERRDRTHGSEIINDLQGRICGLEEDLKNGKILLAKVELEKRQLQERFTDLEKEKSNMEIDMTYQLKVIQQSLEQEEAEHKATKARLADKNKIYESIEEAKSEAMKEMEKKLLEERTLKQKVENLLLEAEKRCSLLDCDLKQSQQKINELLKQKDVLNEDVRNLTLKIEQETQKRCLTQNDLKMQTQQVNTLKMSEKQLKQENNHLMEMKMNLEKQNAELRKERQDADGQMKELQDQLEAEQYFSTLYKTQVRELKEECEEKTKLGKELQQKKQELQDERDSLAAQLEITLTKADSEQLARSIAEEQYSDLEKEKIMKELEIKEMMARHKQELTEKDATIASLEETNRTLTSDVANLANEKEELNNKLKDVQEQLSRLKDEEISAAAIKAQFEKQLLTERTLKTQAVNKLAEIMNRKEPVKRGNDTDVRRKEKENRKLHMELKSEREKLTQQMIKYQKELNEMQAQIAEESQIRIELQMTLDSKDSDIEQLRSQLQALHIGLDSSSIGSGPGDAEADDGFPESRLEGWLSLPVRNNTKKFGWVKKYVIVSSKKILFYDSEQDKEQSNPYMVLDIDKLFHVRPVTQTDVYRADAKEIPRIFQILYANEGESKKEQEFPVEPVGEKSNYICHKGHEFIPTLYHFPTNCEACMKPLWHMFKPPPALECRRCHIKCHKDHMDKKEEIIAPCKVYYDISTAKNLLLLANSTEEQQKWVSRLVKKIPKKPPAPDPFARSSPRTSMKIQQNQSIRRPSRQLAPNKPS
Chain of Proto-oncogene tyrosine-protein kinase receptor Ret (Homo sapiens) (P07949 whole entry): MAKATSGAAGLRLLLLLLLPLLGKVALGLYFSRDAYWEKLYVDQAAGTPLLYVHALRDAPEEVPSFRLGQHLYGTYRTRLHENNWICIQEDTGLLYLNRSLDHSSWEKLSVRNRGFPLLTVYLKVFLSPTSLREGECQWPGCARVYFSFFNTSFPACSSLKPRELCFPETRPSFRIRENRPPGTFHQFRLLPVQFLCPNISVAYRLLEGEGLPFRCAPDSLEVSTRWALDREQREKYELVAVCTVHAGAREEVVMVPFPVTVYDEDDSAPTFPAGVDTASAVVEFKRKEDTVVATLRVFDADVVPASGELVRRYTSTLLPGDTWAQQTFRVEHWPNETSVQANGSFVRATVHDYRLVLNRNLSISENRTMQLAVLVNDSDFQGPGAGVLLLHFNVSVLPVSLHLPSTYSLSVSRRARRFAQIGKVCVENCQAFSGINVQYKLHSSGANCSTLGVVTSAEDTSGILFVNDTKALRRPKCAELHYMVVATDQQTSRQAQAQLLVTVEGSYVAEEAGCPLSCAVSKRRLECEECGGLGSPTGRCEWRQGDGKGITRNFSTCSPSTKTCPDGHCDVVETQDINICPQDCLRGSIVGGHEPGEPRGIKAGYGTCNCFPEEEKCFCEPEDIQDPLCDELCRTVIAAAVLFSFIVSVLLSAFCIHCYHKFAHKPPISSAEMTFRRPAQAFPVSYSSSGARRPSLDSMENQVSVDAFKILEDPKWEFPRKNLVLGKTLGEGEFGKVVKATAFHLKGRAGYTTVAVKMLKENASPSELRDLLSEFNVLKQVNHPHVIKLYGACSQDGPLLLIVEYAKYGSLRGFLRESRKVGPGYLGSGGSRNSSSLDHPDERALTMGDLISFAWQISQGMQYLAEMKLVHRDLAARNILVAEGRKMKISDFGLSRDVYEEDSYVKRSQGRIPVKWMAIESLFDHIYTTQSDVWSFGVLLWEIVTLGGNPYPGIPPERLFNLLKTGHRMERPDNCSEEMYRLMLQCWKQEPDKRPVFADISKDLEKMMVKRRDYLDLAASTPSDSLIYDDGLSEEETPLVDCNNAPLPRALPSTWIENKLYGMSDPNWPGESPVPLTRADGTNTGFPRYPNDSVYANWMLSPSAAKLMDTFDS

CN(C)C(=O)Cn1cc(-c2nc(C3(c4ccc(-c5cnc(N)nc5)cc4)CC3)no2)cn1 [BI 0153]
inactive: residual activity [1] 94% | residual activity [2] 89% | residual activity [3] 100% | residual activity [4] 83% | residual activity [5] 77% | inhibition [6] 5.81% | residual activity [7] 96% | residual activity [8] 89%
active: residual activity [9] 48%

CN(C)C(=O)Cn1cc(-c2nc([C@@](C)(c3ccc(-c4cnc(N)nc4)cc3)C3CC3)no2)cn1 [BI 665915]
active: residual activity [9] 0%
inactive: residual activity [1] 94% | residual activity [2] 100% | residual activity [3] 100% | residual activity [4] 100% | residual activity [5] 85% | inhibition [6] 10.3% | residual activity [7] 100% | residual activity [8] 100%
